From US11077090B2, “Compounds and compositions and uses thereof” (Sunovion Pharmaceuticals Inc., priority 2016, dated 2021)

System: compound-treated mice
Assay: Neuropharmacological assay (SmartCube): behavioral activity signature and minimal effective dose
Format: in vivo
Settings: for minimal effective dose: Mus musculus, ip, MED = dose having 50% or more total activity, read-out: Potency: minimal effective dose (MED); for AD: ADHD (probability of activity signature) / AG: analgesic (probability of activity signature) / AX: anxiolytic (probability of activity signature) / CE: cognitive enhancer (probability of activity signature) / DP: anti-depressant (probability of activity signature) / MS: mood stabilizer (probability of activity signature) / PS: anti-psychotic (probability of activity signature) / SD: sedative hypnotic (probability of activity signature) / UN: uncharacterized CNS activity (probability of activity signature): i.p. 15 min before test, most efficacious dose(s)
How it was run: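 Mice dosed i.p. 15 min before test, compound in N-methyl-2-pyrrolidone/PEG/propylene glycol, 3 doses; video-captured behavior matched to reference-drug signatures, giving per-class probabilities at most efficacious dose. MED from doses typically 0.3–30 mpk, defined as lowest dose with ≥50% total activity.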

Row | Compound | minimal effective dose | AD: ADHD (probability of activity signature) | AG: analgesic (probability of activity signature) | AX: anxiolytic (probability of activity signature) | CE: cognitive enhancer (probability of activity signature) | DP: anti-depressant (probability of activity signature) | MS: mood stabilizer (probability of activity signature) | PS: anti-psychotic (probability of activity signature) | SD: sedative hypnotic (probability of activity signature) | UN: uncharacterized CNS activity (probability of activity signature)
1 | Cc1cccc2c1COCCC2N.Cl (centres unmarked) [Example 37] | 10 to 30 mg/kg | + (LOQ ≤ + <5%) | ++ (5% ≤ ++ <25%) | ++ (5% ≤ ++ <25%) | ++ (5% ≤ ++ <25%) | + (LOQ ≤ + <5%) | + (LOQ ≤ + <5%) | ++ (5% ≤ ++ <25%) | + (LOQ ≤ + <5%) | +++ (25% ≤ +++ <50%)
2 | Cl.NC1CCOCc2cc(Cl)ccc21 (centres unmarked) [Example 38] | 10 to 30 mg/kg | + (LOQ ≤ + <5%) | ++ (5% ≤ ++ <25%) | ++ (5% ≤ ++ <25%) | + (LOQ ≤ + <5%) | ++ (5% ≤ ++ <25%) | + (LOQ ≤ + <5%) | ++ (5% ≤ ++ <25%) | + (LOQ ≤ + <5%) | +++ (25% ≤ +++ <50%)
3 | Cc1cccc2c1C(N)CCOC2.Cl (centres unmarked) [Example 39] | 3 to 10 mg/kg | + (LOQ ≤ + <5%) | ++ (5% ≤ ++ <25%) | +++ (25% ≤ +++ <50%) | ++ (5% ≤ ++ <25%) | ++ (5% ≤ ++ <25%) | + (LOQ ≤ + <5%) | + (LOQ ≤ + <5%) | + (LOQ ≤ + <5%) | ++++ (50% ≤ ++++)
4 | Cl.NC1CCOCc2c(Cl)cccc21 (centres unmarked) [Example 40] | 3 to 10 mg/kg | + (LOQ ≤ + <5%) | ++ (5% ≤ ++ <25%) | +++ (25% ≤ +++ <50%) | ++ (5% ≤ ++ <25%) | + (LOQ ≤ + <5%) | + (LOQ ≤ + <5%) | ++ (5% ≤ ++ <25%) | + (LOQ ≤ + <5%) | ++ (5% ≤ ++ <25%)
5 | Cl.NC1CCOCc2cccc(Cl)c21 (centres unmarked) [Example 41] | 10 to 30 mg/kg | + (LOQ ≤ + <5%) | ++ (5% ≤ ++ <25%) | ++ (5% ≤ ++ <25%) | ++ (5% ≤ ++ <25%) | ++ (5% ≤ ++ <25%) | + (LOQ ≤ + <5%) | + (LOQ ≤ + <5%) | + (LOQ ≤ + <5%) | +++ (25% ≤ +++ <50%)
6 | Cc1ccc2c(c1C)C(N)COC2.Cl (centres unmarked) [Example 42, 5,6-Dimethylisochroman-4-amine hydrochloride] | < 3 mg/kg | + (LOQ ≤ + <5%) | +++ (25% ≤ +++ <50%) | ++ (5% ≤ ++ <25%) | ++ (5% ≤ ++ <25%) | ++ (5% ≤ ++ <25%) | + (LOQ ≤ + <5%) | +++ (25% ≤ +++ <50%) | ++ (5% ≤ ++ <25%) | +++ (25% ≤ +++ <50%)
7 | Cc1ccc2c(c1C)C(N)CCOC2.Cl (centres unmarked) [Example 43, 6,7-Dimethyl-1,3,4,5-tetrahydrobenzo [c]oxepin-5-amine hydrochloride] | 10 to 30 mg/kg | + (LOQ ≤ + <5%) | ++ (5% ≤ ++ <25%) | +++ (25% ≤ +++ <50%) | ++ (5% ≤ ++ <25%) | + (LOQ ≤ + <5%) | + (LOQ ≤ + <5%) | ++ (5% ≤ ++ <25%) | ++ (5% ≤ ++ <25%) | + (LOQ ≤ + <5%)
8 | Cl.NC1COCc2ccc(Cl)c(Cl)c21 (centres unmarked) [Example 44, 5,6-Dichloroisochroman-4-amine hydrochloride] | 3 to 10 mg/kg | + (LOQ ≤ + <5%) | ++ (5% ≤ ++ <25%) | +++ (25% ≤ +++ <50%) | ++ (5% ≤ ++ <25%) | ++ (5% ≤ ++ <25%) | + (LOQ ≤ + <5%) | ++ (5% ≤ ++ <25%) | ++ (5% ≤ ++ <25%) | +++ (25% ≤ +++ <50%)
9 | Cc1ccc2c(c1Cl)C(N)COC2.Cl (centres unmarked) [Example 45, 5-Chloro-6-methylisochroman-4-amine hydrochloride] | 3 to 10 mg/kg | + (LOQ ≤ + <5%) | ++ (5% ≤ ++ <25%) | +++ (25% ≤ +++ <50%) | ++ (5% ≤ ++ <25%) | ++ (5% ≤ ++ <25%) | + (LOQ ≤ + <5%) | ++ (5% ≤ ++ <25%) | ++ (5% ≤ ++ <25%) | ++++ (50% ≤ ++++)
10 | Cc1cc(C)c2c(c1)C(N)COC2.Cl (centres unmarked) [Example 46, 6,8-Dimethylisochroman-4-amine hydrochloride] | < 3 mg/kg | + (LOQ ≤ + <5%) | ++ (5% ≤ ++ <25%) | ++ (5% ≤ ++ <25%) | ++ (5% ≤ ++ <25%) | + (LOQ ≤ + <5%) | + (LOQ ≤ + <5%) | + (LOQ ≤ + <5%) | ++ (5% ≤ ++ <25%) | ++++ (50% ≤ ++++)
11 | Cc1ccc(C)c2c1COCC2N.Cl (centres unmarked) [Example 47, 5,8-Dimethylisochroman-4-amine hydrochloride] | < 3 mg/kg | + (LOQ ≤ + <5%) | ++ (5% ≤ ++ <25%) | ++ (5% ≤ ++ <25%) | ++ (5% ≤ ++ <25%) | ++ (5% ≤ ++ <25%) | ++ (5% ≤ ++ <25%) | ++ (5% ≤ ++ <25%) | + (LOQ ≤ + <5%) | ++++ (50% ≤ ++++)
12 | Cc1ccc(Cl)c2c1C(N)COC2.Cl (centres unmarked) [Example 48, 8-Chloro-5-methylisochroman-4-amine hydrochloride] | < 3 mg/kg | + (LOQ ≤ + <5%) | ++ (5% ≤ ++ <25%) | +++ (25% ≤ +++ <50%) | +++ (25% ≤ +++ <50%) | + (LOQ ≤ + <5%) | + (LOQ ≤ + <5%) | ++ (5% ≤ ++ <25%) | ++ (5% ≤ ++ <25%) | ++ (5% ≤ ++ <25%)
13 | Cc1cc(Cl)c2c(c1)C(N)COC2.Cl (centres unmarked) [Example 49, 8-Chloro-6-methylisochroman-4-amine hydrochloride] | 3 to 10 mg/kg | + (LOQ ≤ + <5%) | ++ (5% ≤ ++ <25%) | ++ (5% ≤ ++ <25%) | ++ (5% ≤ ++ <25%) | ++ (5% ≤ ++ <25%) | + (LOQ ≤ + <5%) | ++ (5% ≤ ++ <25%) | ++ (5% ≤ ++ <25%) | ++++ (50% ≤ ++++)
14 | Cl.NC1COCc2c1ccc1ccccc21 (centres unmarked) [Example 50, 3,4-Dihydro-1H-benzo[h]isochromen-4-amine hydrochloride] | 10 to 30 mg/kg | + (LOQ ≤ + <5%) | ++ (5% ≤ ++ <25%) | ++ (5% ≤ ++ <25%) | ++ (5% ≤ ++ <25%) | +++ (25% ≤ +++ <50%) | + (LOQ ≤ + <5%) | ++ (5% ≤ ++ <25%) | + (LOQ ≤ + <5%) | ++ (5% ≤ ++ <25%)
